Test system: spleen cells
Design: species or system CD-1 mice
Conditions: mouse, in vivo

QS21
cell-mediated immune response (cytokine profile), in words: strong and balanced Th1 plus Th2 cytokine profile

— US20220282657A1 (priority 2016, published 2022)
